Where two headings read alike, the source gives them in different places.
What was measured:
[1] = Stability of cocaine hapten
[2] = tested on: female rhesus monkeys; test: Cocaine and candy self-administration choice in female rhesus monkeys; format: in vivo; conditions: representative female monkey; either dose of cocaine available (FIG. 5)
Text: FIG. 5 is a bar graph depicting cocaine and candy self-administration in female rhesus monkeys. The data is presented as a function of cocaine dose available.
A non-human primate model of intravenous cocaine self-administration will be used to determine if vaccination with Ad-cocaine decreases drug taking, which will likely provide the best predictor of clinical efficacy. To control for nonselective effects, monkeys will be trained to self-administer cocaine and candy, using a choice procedure. If the vaccine is effective at blocking the effects of cocaine, monkeys should decrease the number of cocaine choices self-administered and correspondingly increase the number of candy choices. A non-specific effect would be evidenced by a decrease in both cocaine and candy choices. After all monkeys have been trained to enter the primate chair and respond on the levers for candy, they will have vascular access port surgery (VAP). For self-administration sessions, monkeys will be placed into custom-built primate chairs, moved to the workstation, and connected to the infusion apparatus. Sessions will be conducted five days per week. Monkeys will initially be trained to self-administer 0.1 mg/kg cocaine per infusion. Once responding is stable, the cocaine dose available will be 0.05 mg/kg/infusion. […]

[3] = molecular target: T1, dopamine transporters (DAT) (Macaca mulatta, UniProt Q7JHP9); conditions: rhesus monkeys, cited from earlier work
T1 construct: In rhesus monkeys, doses of 0.1 and 1.0 mg/kg cocaine occupy 53% and 87% of the DAT; host or cells: rhesus monkey brain, in vivo
T1 sequence (Q7JHP9 1-620): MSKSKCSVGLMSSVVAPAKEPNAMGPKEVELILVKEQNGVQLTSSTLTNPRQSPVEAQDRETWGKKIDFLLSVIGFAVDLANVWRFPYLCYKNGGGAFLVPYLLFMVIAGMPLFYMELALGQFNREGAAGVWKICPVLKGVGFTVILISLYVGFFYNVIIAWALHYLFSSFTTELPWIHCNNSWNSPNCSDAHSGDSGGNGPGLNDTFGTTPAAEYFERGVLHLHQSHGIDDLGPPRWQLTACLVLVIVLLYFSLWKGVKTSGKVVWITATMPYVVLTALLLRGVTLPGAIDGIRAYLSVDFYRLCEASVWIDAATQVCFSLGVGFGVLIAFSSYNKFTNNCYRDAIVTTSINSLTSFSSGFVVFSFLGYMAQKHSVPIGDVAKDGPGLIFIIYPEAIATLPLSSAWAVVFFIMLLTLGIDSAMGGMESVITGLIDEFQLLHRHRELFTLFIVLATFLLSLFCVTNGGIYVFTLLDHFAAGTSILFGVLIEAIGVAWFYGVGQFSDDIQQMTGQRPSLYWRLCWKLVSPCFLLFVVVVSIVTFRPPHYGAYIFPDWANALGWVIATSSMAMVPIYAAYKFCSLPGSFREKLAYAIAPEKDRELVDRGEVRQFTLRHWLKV

[4] = molecular target: T2, dopamine transporters (DAT) (Homo sapiens, UniProt Q01959); conditions: human cocaine abusers; cited from earlier work
T2 construct: In human cocaine abusers, at least 47% of the DAT needs to be occupied; host or cells: human brain, in vivo
T2 sequence (Q01959 whole entry): as the sequence (Q7JHP9 1-620) above, with M24V, V137I, S194P, G198S, N200D, G201S, P202S counted along it

Structure (SMILES)	stability relative to GNC [1]	choice between i.v. cocaine and candy [2]	occupancy of the DAT ([3]; 0.1 mg/kg cocaine) [%]	occupancy of the DAT ([3]; 1.0 mg/kg cocaine) [%]	DAT occupancy needed to perceive the subjective effects of cocaine [4]
CN1C2CCC1[C@@H](C(=O)NCCCCCC(=O)O)[C@@H](OC(=O)c1ccccc1)C2 (some centres unmarked) [GNE]	more stable than GNC	–	–	–	–
COC(=O)[C@@H]1C2CCC(C[C@@H]1OC(=O)c1ccccc1)N2C (some centres unmarked) [cocaine]	–	exclusively chose cocaine over candy	53	87	at least 47%
